According to patent US20250289774A1, “[…] OF A CANNABIDIOL-LIKE CANNABINOID” (Jazz Pharmaceuticals Research UK Limited, priority 2022, published 2025):

Key:
[1] = Stability of 6-OH CBDV Form A to compression (XRPD after pressing); assay type: physicochemical; conditions: ~60 mg in KBr pellet die, compressed overnight at ~370 MPa, analysed immediately by XRPD
Protocol: (§1) XRPD analyses were performed using a Panalytical Empyrean diffractometer equipped with a Cu X-ray tube and a PIXcel 1 D-Medipix3 detector system. The samples were analysed at ambient temperature in transmission mode and held between low density PVC films. The XRPD program parameters were: range 3-40° 2θ or 4-40° 2θ, step size 0.01313°, counting time 23 sec, ˜5 min run time. Samples were spun at 60 rpm during data collection. XRPD patterns were sorted, manipulated using HighScore Plus v4.9 software.
Crystalline Form A material (˜60 mg) was added to a KBr pellet die and compressed overnight at ˜370 MPa using a hydraulic press. The resultant solid disc was removed from the press and immediately analysed by XRPD.

[2] = Stability of Form A to ball milling (XRPD after milling); assay type: physicochemical; conditions: 6 minutes at 25 Hz
Protocol: as §1
A ball mill was used to mimic the effects of grinding that would be experienced during formulation steps such as dry blending and wet granulation.
Approximately 45 mg of crystalline Form A material was added to a milling chamber with an agate milling ball. Using a Retsch MM200 mixer mill, the material was milled for 6 minutes at a frequency of 25 Hz. Periodically, the milling was stopped and powder that adhered to the milling chamber was scraped down. The resultant milled material was analysed using XRPD. Samples were also milled with addition of a small amount of solvent (˜10 μL).

[3] = test system: mouse model of generalised seizure; conditions: data of PCT/GB2020/052944; cited from earlier work

C=C(C)[C@@H]1C[C@H](O)C(C)=C[C@H]1c1c(O)cc(CCC)cc1O [Form A, 6-hydroxy cannabidivarin]
Solid form after compression (XRPD) [1]: remained as Form A | Output Form after milling (XRPD) ([2]; dry ball milling, no solvent): no change in form | Output Form after milling (XRPD) ([2]; wet ball milling, water (~10 μL)): no change in form

C=C(C)[C@@H]1C[C@H](O)C(C)=C[C@H]1c1c(O)cc(CCC)cc1O [6-OH CBDV, 6-hydroxy cannabidivarin]
Anticonvulsant activity [3]: displays anticonvulsant activity
